# Measurements published in patent US7071344B1, “Vitamin D derivatives with cyclopropyl rings in the lateral chains, a method and intermediate products for the production thereof and the utilization thereof for producing medicaments” (Schering AG, priority 1997, dated 2006).
# Legend:
# [1] = acute hypercalcemic action (serum-calcium) in rats; format: in vivo, rat; conditions: dose ratio test substance/calcitriol for comparable hypercalcemic action; one-time subcutaneous administration, male rats
# Experimental: To determine the acute hypercalcemic action of various calcitriol derivatives, the test that is described below is carried out:
# The action of control (solution base), reference substance (1,25-dihydroxy vitamin D3=calcitriol) and test substance is tested in each case after one-time subcutaneous administration in groups of 10 healthy male rats (140–170 g). During the testing time, the rats are kept in special cages to determine the excretion of water and mineral substances. Urine is collected in 2 fractions (0–16 hours and 16–22 hours). An oral dose of calcium (0.1 mmol of calcium in 6.5% alpha-hydroxypropylcellulose, 5 ml/animal) replaces at 1600 hours the calcium intake that is lacking by food deprivation. At the end of the test, the animals are killed by decapitation and exsanguinated to determine the serum-calcium values. For the primary screen test in vivo, an individual standard dose (200 μg/kg) is tested. For selected substances, the result is supported by establishing a dose-effect relation.
# A hypercalcemic action is shown in serum-calcium level values that are higher than in the control.
# The significance of differences between substance groups and controls and between test substance and reference substance are supported with suitable statistical processes.
# calcitriol receptor = biological target: T1, calcitriol receptor (Sus scrofa, UniProt A3RGC1); assay: calcitriol-receptor test (competition with 3H-calcitriol); conditions: competition factor = concentration of test substance / concentration of calcitriol at 50% competition; protein extract from intestines of juvenile pigs
# T1 sequence (A3RGC1 1-427): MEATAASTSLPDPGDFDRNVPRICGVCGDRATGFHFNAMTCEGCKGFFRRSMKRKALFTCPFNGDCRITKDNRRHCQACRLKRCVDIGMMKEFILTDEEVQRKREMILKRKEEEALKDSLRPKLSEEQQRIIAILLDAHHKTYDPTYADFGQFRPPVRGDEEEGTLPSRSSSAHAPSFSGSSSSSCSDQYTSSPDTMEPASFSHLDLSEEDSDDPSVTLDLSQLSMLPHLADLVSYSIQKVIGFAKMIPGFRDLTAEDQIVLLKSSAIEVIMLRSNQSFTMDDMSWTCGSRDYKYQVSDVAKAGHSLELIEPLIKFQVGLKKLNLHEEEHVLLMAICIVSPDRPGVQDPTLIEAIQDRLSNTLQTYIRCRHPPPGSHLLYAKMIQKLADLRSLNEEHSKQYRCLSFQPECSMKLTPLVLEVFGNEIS
# Experimental: The vitamin D activity of the substances according to the invention is determined with the aid of the calcitriol-receptor test. It is carried out using a protein extract from the intestines of juvenile pigs.
# Then, the samples are centrifuged at 10,000 g for 5 minutes at 4° C. The supernatant is decanted and measured in a β-counter after 1 hour of equilibration in Picofluor 15™.
# The competition curves that are obtained at various concentrations of test substance as well as of reference substance (unlabeled calcitriol) at constant concentration of the reference substance (^3H-calcitriol) are placed in relation to one another, and a competition factor (KF) is determined.
# It is defined as a quotient of the concentrations of the respective test substance and the reference substance, which are necessary for 50% competition:
# [2] = metabolic stability in liver homogenate; format: in vitro ADME; conditions: half-life in the liver homogenate (rat)
# Experimental: To determine the metabolic stability, the test substance is incubated with tissue homogenate (from the rat liver) in the presence of buffer systems. The drop in starting concentration is tracked as a function of time. After a certain time, the incubation is stopped, and the unaltered test substance is extracted from the homogenate (diethyl ether), concentrated by evaporation under nitrogen, isolated via HPLC (mobile solvent: acetonitrile/water) and detected using UV-absorption.
# HL 60 cells = assay: differentiation induction of HL 60 cells to macrophages (NBT reduction); format: cell-based, human; conditions: dose ratio test substance/calcitriol for comparable semi-maximum differentiation induction; 96 hours incubation
# Experimental: The differentiation-stimulating action of calcitriol analogues is also detected quantitatively.
# It is known in the literature [Mangelsdorf, D. J. et al., J. Cell. Biol. 98: 391 (1984)] that the treatment of human leukemia cells (promyelocyte cell line HL 60) in vitro with calcitriol induces the differentiation of cells to macrophages.
# HL 60 cells are cultivated in tissue culture medium (RPMI 10% fetal calf serum) at 37° C. in an atmosphere of 5% CO2 in air.
# For substance testing, the cells are centrifuged off, and 2.0×10^5 cells/ml in phenol red-free tissue culture medium is taken up. The test substances are dissolved in ethanol and diluted with tissue culture medium without phenol red to the desired concentration. The dilution stages are mixed with the cell suspension at a ratio of 1:10, and 100 μl each of this cell suspension that is mixed with substance is pipetted into an indentation of a 96-hole plate. For control, a cell suspension is mixed analogously with the solvent.
# After incubation for 96 hours at 37° C. in 5% CO2 in air, 100 μl of an NBT-TPA solution (nitro blue tetrazolium (NBT), final concentration in the batch of 1 mg/ml, tetradecanoyl phorbolmyristate-13-acetate (TPA), final concentration in the batch of 2×10^−7 mol/l) is pipetted into each indentation of the 96-hole plate in the cell suspension.
# By incubation for 2 hours at 37° C. and 5% CO2 in air, NBT is reduced to insoluble formazan because of the intracellular oxygen radical release, stimulated by TPA, in the cells that are differentiated to macrophages.
# To complete the reaction, the indentations of the 96-hole plate are suctioned off, and the cells are affixed to the bottom of the plate by adding methanol and dried after affixing. To dissolve the intracellular formazan crystals that are formed, 100 μl of potassium hydroxide (2 mol/l) and 100 μl of dimethyl sulfoxide are pipetted into each indentation and ultrasonically treated for 1 minute. The concentration of formazan is measured by spectrophotometry at 650 nm.
# As a yardstick for the differentiation induction of HL 60 cells to macrophages, the concentration of formed formazan applies.
Molecule,DR Ca [1],KF (calcitriol receptor),T½ [2] [h],half-life ([2]; read-out: T½) [h],DR HL 60 (HL 60 cells)
"C=C1/C(=C\C=C2/CCC[C@]3(C)[C@@H]([C@H](C)/C=C/[C@H](O)C4(CCCC)CC4)CC[C@@H]23)C[C@@H](O)C[C@@H]1O [Compound 226a, (5Z,7E,22E)-(1S,3R,24S)-25-Butyl-26,27-cyclo-9,10-secocholesta-5,7,10(19),22-tetraene-1,3,24-triol]",>>1,4,1.33,,2
"C=C1C(=CC=C2CCCC3(C)C2CCC3C(C)C=CC(O)C2(CCCC)CC2)CC(O)CC1O [Compound 226b, (5Z,7E,22E)-(1S,3R,24R)-25-butyl-26,27-cyclo-9,10-secocholesta-5,7,10(19),22-tetraene-1,3,24-triol]",>5,3,1.67,,0.4
"[5Z,7E,22E,25(Z)]-(1S,3R,24S)-25-(1-octenyl)-26,27-cyclo-9,10-secocholesta-5,7,10(19),22-tetraene-1,3,24-triol [Compound 246b]",>>10,10,1.67,,2

# More lines, main results first:
DR Ca [1],KF (calcitriol receptor),T½ [2] [h],half-life ([2]; read-out: T½) [h],Molecule,DR HL 60 (HL 60 cells)
>100,9,1.25,,"C=C1/C(=C\C=C2/CCC[C@]3(C)[C@@H]([C@H](C)/C=C/[C@@H](O)C4(CCCCCC)CC4)CC[C@@H]23)C[C@@H](O)C[C@@H]1O [Compound 231b, (5Z,7E,22E)-(1S,3R,24R)-25-hexyl-26,27-cyclo-9,10-secocholesta-5,7,10(19),22-tetraene-1,3,24-triol]",2
>>30,20,1.67,,"C=C1/C(=C\C=C2/CCC[C@]3(C)[C@@H]([C@H](C)/C=C/[C@@H](O)C4(CCCCCCC)CC4)CC[C@@H]23)C[C@@H](O)C[C@@H]1O [Compound 236b, (5Z,7E,22E)-(1S,3R,24R)-25-heptyl-26,27-cyclo-9,10-secocholesta-5,7,10(19),22-tetraene-1,3,24-triol]",4
50,1,,0.667,"C=C1/C(=C\C=C2/CCC[C@]3(C)[C@@H]([C@H](C)/C=C/[C@@H](O)C4CC4)CC[C@@H]23)C[C@@H](O)C[C@@H]1O [calcipotriol, (5Z,7E,22E)-(1S,3R,24S)-26,27-Cyclo-9,10-secocholesta-5,7,10(19),22-tetraene-1,3,24-triol, reference compound]",1
